Results on 2 sequences are retold here after patent US20150250864A1, “ANTI-CANCER VACCINES” (Board of Regents, The University of Texas System, priority 2012, published 2015).

This test concerns T cells from HLA A2+ normal donor. The experiment in a line: IFN-γ ELISPOT, T cells stimulated by 9-mer peptide pool-pulsed homologous B cells. It counts as cell-based, human. An excerpt:
FIGS. 12A-B. Identification of HLA-A2 T-cell specific peptides using anti-human IFN-γ ELISPOT with T cells from one HLA A2^+ normal donor. (FIG. 12A) T cells, stimulated by peptide pool-pulsed homologous B cells three (3rd T cells) or four (4th T cells) times were reactive with two pools from a HERV-K HLA A2^+9-mer peptide library (pool #1-11 and pool #12-22). NP is no peptide control. (FIG. 12B) Photographs of actual plates for FIG. 12A.
FIGS. 13A-B. Identification of HLA-A2 T cell specific epitopes using anti-human IFN-γ ELISPOT. T cells obtained from PBMC stimulated by peptide pool-pulsed homologous B cells three (3rd T cells) or four (4th T cells) times, were reactive with individual peptides. (FIG. 13A) Image of ELISPOT. (FIG. 13B) The code of peptides evaluated in ELISPOT assays.
FIGS. 14A-C. Summary of number of ELISPOTs from each individual peptide. Numbers of spots detected (pool 1-11, pool 12-22, and pool 23-33) in ELISPOTS with a single peptide are shown. NP contains no peptide (as control). (FIG. 14A) Summary of number of ELISPOTs from each individual peptide including #1, #2, #3, #5, #6, #7, #8, and #9, and peptide pool #1 to #11. (FIG. 14B) Summary of number of ELISPOTs from each individual peptide including #12, #13, #14, #15, #17, #18, #19, #20, #22 and peptide pool #12 to #22. (FIG. 14C) Summary of number of ELISPOTs from each individual peptide including #23, #24, #25, #26, #27, #28, #30, #31, #32, #33, and peptide pool #23 to #33. 4th T cells indicated the T cells had been stimulated with peptide pool 4 times and 3rd T cells indicated the T cells had been stimulated with peptide pool 3 times.
The inventor used epitope mapping to identify responses to HERV-K peptides in breast cancer patients. They chemically synthesized a HERV-K env nine amino acid (9mer) peptide library (33 HLA A2 restricted peptides) and overlapping 15mer peptide library (144 peptides). Preliminary research has identified two pools from the HERV-K env 9mer peptide library that contain potential CD8+ epitopes, using interferon gamma (IFN-γ) enzyme-linked immunosorbent spot (ELISPOT) assay with T cells from one HLA A2^+ normal donor which was stimulated with the 9mer peptide pool-pulsed homologous dendritic cells (DCs).
HLA-2+ patients were identified by flow cytometry using anti-A2 antibody. Activated B cells were cultured from PBMCs stimulated with irradiated 3T3-CD40L-expressing fibroblasts. Normal donor CD8+ T-cell lines were obtained from PBMCs stimulated with autologous activated B cells pulsed with peptide pools (peptides are in 3 pools: #1-11, #12-22, and #23-33); the stimulation was repeated for 3-4 cycles. HERV-K specific T cells generated from normal donor lines were tested for peptide reactivity using IFN-γ ELISPOT assays (FIGS. 12A-B).

Regarding YMLVVGNIV [HERVK-3], the “CD8 T epitope for HLA-A2 donors” value is reported as “may be CD8 T epitopes”. The “IFN-γ ELISPOT spots with individual peptide” value (“IFN-γ ELISPOT spots” below) (T cell stimulated 4 times with peptide pool #1 to 11) is “numerous spots”.

IINLILILV [HERVK-18]: the “CD8 T epitope for HLA-A2 donors” value is recorded as “may be CD8 T epitopes”. Further, the “IFN-γ ELISPOT spots” value (T cell stimulated 3 times with peptide pool #12 to 22) is reported as “numerous spots”. For the setting “T cell stimulated 4 times with peptide pool #12 to 22”, the “IFN-γ ELISPOT spots” value is “numerous spots”.
